Measurements: PubChem BioAssay (NCI)
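Cultured in 96-well plates, cells were exposed to test compound for 48 hours across five concentrations. Abbreviation: GI50, concentration required for 50% inhibition of growth. TGI: concentration producing complete growth inhibition.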

Legend:
Assay in all cases: inhibition of tumour cell growth, NCI panel, 48 h
SF-539 CNS = tested on: SF-539 CNS
HCT-116 colon = tested on: HCT-116 colon
UACC-257 melanoma = tested on: UACC-257 melanoma
DU-145 prostate = tested on: DU-145 prostate
NCI-H460 lung = tested on: NCI-H460 lung
TK-10 renal = tested on: TK-10 renal
HT29 colon = tested on: HT29 colon
T-47D breast = tested on: T-47D breast
M14 melanoma = tested on: M14 melanoma
MOLT-4 leukemia = tested on: MOLT-4 leukemia

COc1ccc2c3c(Nc4ccc(/C(C)=N/O)cc4)[nH]c4ccccc4c-3c(N=O)c2c1
GI50 (SF-539 CNS): 17.3 µM
TGI (SF-539 CNS): 34.6 µM
GI50 (HCT-116 colon): 1.47 µM
TGI (HCT-116 colon): 2.89 µM
GI50 (UACC-257 melanoma): 3.08 µM
TGI (UACC-257 melanoma): 8.56 µM
GI50 (DU-145 prostate): 2.04 µM
TGI (DU-145 prostate): 4.79 µM
GI50 (NCI-H460 lung): 29.5 µM
TGI (NCI-H460 lung): > 100 µM
GI50 (TK-10 renal): 5.05 µM
TGI (TK-10 renal): 71.7 µM
GI50 (HT29 colon): 19.6 µM
TGI (HT29 colon): 33.7 µM
GI50 (T-47D breast): 24.1 µM
TGI (T-47D breast): 53.2 µM
GI50 (M14 melanoma): 2.44 µM
TGI (M14 melanoma): 5.64 µM
GI50 (MOLT-4 leukemia): 0.951 µM
TGI (MOLT-4 leukemia): 2.84 µM

Cc1ccc(Nc2nnc(-c3ccc4c(c3)OCO4)o2)c(C)c1
TGI (SF-539 CNS): > 100 µM
TGI (HCT-116 colon): > 100 µM
TGI (UACC-257 melanoma): > 100 µM
TGI (DU-145 prostate): > 100 µM
TGI (NCI-H460 lung): > 100 µM
TGI (TK-10 renal): > 100 µM
TGI (HT29 colon): > 100 µM
TGI (T-47D breast): > 100 µM
TGI (M14 melanoma): > 100 µM
TGI (MOLT-4 leukemia): > 100 µM

Nc1ccccc1SC1CC(=O)N(c2ccc(Cl)c(Cl)c2)C1=O (stereo not given)
GI50 (SF-539 CNS): 63.6 µM
TGI (SF-539 CNS): > 100 µM
GI50 (HCT-116 colon): 24.2 µM
TGI (HCT-116 colon): > 100 µM
GI50 (UACC-257 melanoma): 31.8 µM
TGI (UACC-257 melanoma): > 100 µM
GI50 (DU-145 prostate): 27.5 µM
TGI (DU-145 prostate): > 100 µM
GI50 (NCI-H460 lung): 32 µM
TGI (NCI-H460 lung): > 100 µM
GI50 (TK-10 renal): 20 µM
TGI (TK-10 renal): 53 µM
GI50 (HT29 colon): 42.1 µM
TGI (HT29 colon): > 100 µM
GI50 (T-47D breast): 12.6 µM
TGI (T-47D breast): > 100 µM
GI50 (M14 melanoma): 40.4 µM
TGI (M14 melanoma): > 100 µM
GI50 (MOLT-4 leukemia): 7.7 µM
TGI (MOLT-4 leukemia): > 100 µM

Cc1ccc(S(=O)(=O)NC(=O)NC2=NC(C)(C)N(c3ccc(Cl)c(Cl)c3)C(N)=N2)cc1
TGI (SF-539 CNS): > 100 µM
TGI (HCT-116 colon): > 100 µM
TGI (UACC-257 melanoma): > 100 µM
TGI (DU-145 prostate): > 100 µM
TGI (NCI-H460 lung): > 100 µM
TGI (TK-10 renal): > 100 µM
TGI (HT29 colon): > 100 µM
TGI (T-47D breast): > 100 µM
TGI (M14 melanoma): > 100 µM
TGI (MOLT-4 leukemia): > 100 µM

Cn1c(=O)c2c(ncn2CC(=O)Nc2ccc(-c3ccccc3)nn2)n(C)c1=O
GI50 (SF-539 CNS): > 100 µM
TGI (SF-539 CNS): > 100 µM
GI50 (HCT-116 colon): > 100 µM
TGI (HCT-116 colon): > 100 µM
GI50 (UACC-257 melanoma): > 100 µM
TGI (UACC-257 melanoma): > 100 µM
GI50 (DU-145 prostate): > 100 µM
TGI (DU-145 prostate): > 100 µM
GI50 (NCI-H460 lung): > 100 µM
TGI (NCI-H460 lung): > 100 µM
GI50 (TK-10 renal): > 100 µM
TGI (TK-10 renal): > 100 µM
GI50 (HT29 colon): > 100 µM
TGI (HT29 colon): > 100 µM
GI50 (T-47D breast): 75.6 µM
TGI (T-47D breast): > 100 µM
GI50 (M14 melanoma): 10.4 µM
TGI (M14 melanoma): > 100 µM
GI50 (MOLT-4 leukemia): > 100 µM
TGI (MOLT-4 leukemia): > 100 µM

CC/C=C/C/C=C/C/C=C/C/C=C/C/C=C/C/C=C/CCC(=O)Nc1ccn([C@@H]2O[C@H](CO)[C@@H](O)C2(F)F)c(=O)n1
GI50 (SF-539 CNS): 0.0425 µM
TGI (SF-539 CNS): 5.71 µM
GI50 (HCT-116 colon): 0.0873 µM
TGI (HCT-116 colon): 29.8 µM
GI50 (UACC-257 melanoma): 5.05 µM
TGI (UACC-257 melanoma): 46.4 µM
GI50 (DU-145 prostate): 0.043 µM
TGI (DU-145 prostate): 24.9 µM
GI50 (NCI-H460 lung): 0.0199 µM
TGI (NCI-H460 lung): 12.1 µM
GI50 (TK-10 renal): 39.1 µM
TGI (TK-10 renal): > 66.5 µM
GI50 (HT29 colon): 0.138 µM
TGI (HT29 colon): 19.5 µM
GI50 (T-47D breast): 0.174 µM
TGI (T-47D breast): 54.4 µM
GI50 (M14 melanoma): 0.0303 µM
TGI (M14 melanoma): 0.212 µM
GI50 (MOLT-4 leukemia): 0.0802 µM
TGI (MOLT-4 leukemia): 3.55 µM

O=C(NCc1ccc(S(=O)(=O)c2cc(F)cc(F)c2)cc1)c1ccc2nccn2c1
GI50 (SF-539 CNS): < 0.01 µM
TGI (SF-539 CNS): > 42.9 µM
GI50 (HCT-116 colon): < 0.01 µM
TGI (HCT-116 colon): > 100 µM
GI50 (UACC-257 melanoma): > 59.1 µM
TGI (UACC-257 melanoma): > 100 µM
GI50 (DU-145 prostate): 0.0773 µM
TGI (DU-145 prostate): > 100 µM
GI50 (NCI-H460 lung): 0.514 µM
TGI (NCI-H460 lung): > 100 µM
GI50 (TK-10 renal): 36.3 µM
TGI (TK-10 renal): > 62.9 µM
GI50 (HT29 colon): 0.0885 µM
TGI (HT29 colon): > 100 µM
GI50 (T-47D breast): 11.7 µM
TGI (T-47D breast): > 100 µM
GI50 (M14 melanoma): < 0.0108 µM
TGI (M14 melanoma): > 100 µM
GI50 (MOLT-4 leukemia): > 27.2 µM
TGI (MOLT-4 leukemia): > 100 µM

CCN(CC)CCNc1ccc2ncn3c4cc(OC)c(OC)c(=O)c4c(O)c1c23
TGI (SF-539 CNS): 29 µM
TGI (HCT-116 colon): 5.82 µM
TGI (UACC-257 melanoma): 44.2 µM
TGI (DU-145 prostate): 23.5 µM
TGI (NCI-H460 lung): 15.6 µM
TGI (TK-10 renal): 31.6 µM
TGI (HT29 colon): 19.8 µM
TGI (T-47D breast): 42.4 µM
TGI (M14 melanoma): 30.3 µM
TGI (MOLT-4 leukemia): 11.5 µM

O=C(OCc1ccc2c(Cl)cc(Cl)c(O)c2n1)N1CCN(C(=O)c2cc3cc(F)ccc3[nH]2)CC1
GI50 (SF-539 CNS): 0.403 µM
TGI (SF-539 CNS): 3.02 µM
GI50 (HCT-116 colon): 0.392 µM
TGI (HCT-116 colon): > 100 µM
GI50 (UACC-257 melanoma): > 100 µM
TGI (UACC-257 melanoma): > 100 µM
GI50 (DU-145 prostate): 1.94 µM
TGI (DU-145 prostate): 18.6 µM
GI50 (NCI-H460 lung): 0.918 µM
TGI (NCI-H460 lung): > 100 µM
GI50 (TK-10 renal): 99.5 µM
TGI (TK-10 renal): > 100 µM
GI50 (HT29 colon): 62.7 µM
TGI (HT29 colon): > 100 µM
GI50 (T-47D breast): > 100 µM
TGI (T-47D breast): > 100 µM
GI50 (M14 melanoma): 0.675 µM
TGI (M14 melanoma): > 100 µM
GI50 (MOLT-4 leukemia): 1.02 µM
TGI (MOLT-4 leukemia): > 100 µM

O/C(=C\c1nc2ccccc2nc1NC12CC3CC(CC(C3)C1)C2)c1ccc(Br)cc1
TGI (SF-539 CNS): > 10 µM
TGI (HCT-116 colon): > 10 µM
TGI (UACC-257 melanoma): > 10 µM
TGI (DU-145 prostate): > 10 µM
TGI (NCI-H460 lung): > 10 µM
TGI (TK-10 renal): > 10 µM
TGI (HT29 colon): > 10 µM
TGI (T-47D breast): > 10 µM
TGI (M14 melanoma): > 10 µM
TGI (MOLT-4 leukemia): > 10 µM

NC(=S)N/N=C/c1cc(-c2cccc(N)c2)ccn1
GI50 (SF-539 CNS): 0.675 µM
TGI (SF-539 CNS): 6.17 µM
GI50 (HCT-116 colon): 1.99 µM
TGI (HCT-116 colon): 27.3 µM
GI50 (UACC-257 melanoma): 2.15 µM
TGI (UACC-257 melanoma): > 28.6 µM
GI50 (DU-145 prostate): 1.25 µM
TGI (DU-145 prostate): 12 µM
GI50 (NCI-H460 lung): 1.07 µM
TGI (NCI-H460 lung): 7.27 µM
GI50 (TK-10 renal): 1.2 µM
TGI (TK-10 renal): 44 µM
GI50 (HT29 colon): 3.72 µM
TGI (HT29 colon): > 100 µM
GI50 (T-47D breast): 1.34 µM
TGI (T-47D breast): > 100 µM
GI50 (M14 melanoma): 1.49 µM
TGI (M14 melanoma): 4.21 µM
GI50 (MOLT-4 leukemia): 0.588 µM
TGI (MOLT-4 leukemia): > 100 µM

O=C(N/N=C/c1c(Cl)cccc1Cl)c1ccc(C(F)(F)F)nc1Nc1cccc(C(F)(F)F)c1
GI50 (SF-539 CNS): 2.11 µM
TGI (SF-539 CNS): 8.09 µM
GI50 (HCT-116 colon): 0.461 µM
TGI (HCT-116 colon): 38.8 µM
GI50 (UACC-257 melanoma): 1.02 µM
TGI (UACC-257 melanoma): > 100 µM
GI50 (DU-145 prostate): 1.79 µM
TGI (DU-145 prostate): > 32.8 µM
GI50 (NCI-H460 lung): 0.419 µM
TGI (NCI-H460 lung): 6.13 µM
GI50 (TK-10 renal): 2.87 µM
TGI (TK-10 renal): > 91.4 µM
GI50 (HT29 colon): 1.24 µM
TGI (HT29 colon): > 100 µM
GI50 (T-47D breast): 0.971 µM
TGI (T-47D breast): 11.8 µM
GI50 (M14 melanoma): 1.6 µM
TGI (M14 melanoma): > 31.1 µM
GI50 (MOLT-4 leukemia): 0.394 µM
TGI (MOLT-4 leukemia): 7.7 µM

COC(=O)CCC1=C(CC(=O)OC)C(C)=N/C1=C\c1[nH]c(-c2ccc[nH]2)cc1OC
GI50 (SF-539 CNS): 5.63 µM
TGI (SF-539 CNS): 20.6 µM
GI50 (HCT-116 colon): 1.36 µM
TGI (HCT-116 colon): 11.5 µM
GI50 (UACC-257 melanoma): 4.47 µM
TGI (UACC-257 melanoma): 17 µM
GI50 (DU-145 prostate): 5.87 µM
TGI (DU-145 prostate): 22.6 µM
GI50 (NCI-H460 lung): 3.72 µM
TGI (NCI-H460 lung): 13.7 µM
GI50 (TK-10 renal): 3.58 µM
TGI (TK-10 renal): 16.6 µM
GI50 (HT29 colon): 0.557 µM
TGI (HT29 colon): 10.3 µM
GI50 (T-47D breast): 3.55 µM
TGI (T-47D breast): 16.3 µM
GI50 (M14 melanoma): 4.51 µM
TGI (M14 melanoma): 16.2 µM
GI50 (MOLT-4 leukemia): 2.31 µM
TGI (MOLT-4 leukemia): 20.1 µM

O=[N+]([O-])c1ccc(CSCc2ccc(Cl)cc2)cc1
TGI (SF-539 CNS): > 100 µM
TGI (HCT-116 colon): > 100 µM
TGI (UACC-257 melanoma): > 100 µM
TGI (DU-145 prostate): > 100 µM
TGI (NCI-H460 lung): > 100 µM
TGI (TK-10 renal): > 100 µM
TGI (HT29 colon): > 100 µM
TGI (T-47D breast): > 100 µM
TGI (M14 melanoma): > 100 µM
TGI (MOLT-4 leukemia): > 100 µM
